From ChEMBL document CHEMBL3232858, “Antiangiogenic activity of hypoxylonol C” (J Nat Prod, 2014)
Active and inactive are the calls of the source.

How the values were obtained:
Conditions in all cases: Homo sapiens
HUVEC [1] = assay: Antiangiogenic activity in HUVEC assessed as reduction of VEGF-induced tube length at 1 to 20 uM after 11 days; assay type: functional, cell-based
HUVEC [2] = assay: Antiangiogenic activity in HUVEC assessed as inhibition of VEGF-induced cell migration after 22 hrs
HUVEC [3] = assay: Antiangiogenic activity in HUVEC assessed as reduction of VEGF-induced vascular endothelial cadherin mRNA level at 20 uM after 24 hrs by RT-PCR analysis; assay type: functional, cell-based
HUVEC [4] = assay: Antiangiogenic activity in HUVEC assessed as reduction of VEGF-induced cyclins A2 and B1 mRNA level at 20 uM after 24 hrs by RT-PCR analysis; assay type: functional, cell-based
HUVEC [5] = assay: Antiangiogenic activity in HUVEC assessed as reduction of VEGF-induced integrins alpha3 and beta1 mRNA level at 20 uM after 24 hrs by RT-PCR analysis; assay type: functional, cell-based
HUVEC [6] = assay: Antiangiogenic activity in HUVEC assessed as reduction of VEGF-induced CDK1 mRNA level at 20 uM after 24 hrs by RT-PCR analysis; assay type: functional, cell-based
HUVEC [7] = assay: Antiangiogenic activity in HUVEC assessed as inhibition of VEGF-induced tube formation at 1 to 20 uM after 11 days; assay type: functional, cell-based
HUVEC [8] = assay: Antiangiogenic activity in HUVEC assessed as inhibition of VEGF-induced cell migration at 1 to 20 uM after 22 hrs
HUVEC [9] = assay: Antiangiogenic activity in HUVEC assessed as inhibition of VEGF-induced tube formation after 11 days; assay type: functional, cell-based

O=C1C[C@H]2C(=C3c4c2ccc(O)c4[C@@H](O)C[C@@H]3O)c2cccc(O)c21
active: inhibition (HUVEC [1]) | inhibition (HUVEC [2]) Dose-dependent effect | Activity (HUVEC [3]) | Activity (HUVEC [4]) | Activity (HUVEC [5]) | Activity (HUVEC [6]) | inhibition (HUVEC [7]) | inhibition (HUVEC [8]) | inhibition (HUVEC [9]) Dose-dependent effect
